Two compounds from US20110118120A1, “SYNERGISTIC HERBICIDAL COMPOSITION CONTAINING AMINOPYRALID AND SULFONYLUREAS” (Dow AgroSciences LLC, priority 2009, published 2011) can be followed below.

This assay has as its system milk thistle (Sonchus oleraceus; SONOL). Briefly: Postemergence herbicidal activity of mixtures under field conditions (percent visual weed control). In kind it is in vivo. As to conditions: postemergence foliar, spring wheat. The protocol: These trials were conducted under field conditions in Northern New South Wales, Australia. Trials sites were located in commercially grown fields of spring wheat (Triticum aestivum). The wheat crop was grown using normal cultural practices for fertilization, seeding, and maintenance to ensure good growth of the crop and the weeds. The trial was conducted using normal research methodology. Trial plots were marked out measuring 3 meters (m) by 10 m. All treatments were applied using a randomized complete block trial design with 4 replications per treatment. The trial sites had naturally occurring populations of weeds present. The weed spectrum included, but was not limited to, milk thistle (Sonchus oleraceus; SONOL); wire-weed (Polygonum aviculare; POLAV); turnip weed (Rapistrum rugosum; RASRU); Medick, Medicago spp. (MEDSS); Patersons curse (Echium plantagineum; EPHIL). The weeds were treated with postemergence foliar applications when they were between cotyledons and 8 true leaves.
Treatments consisted of tank mixes of soluble granules of aminopyralid potassium salt and commercially available formulations of metsulfuron-methyl (Ally™ herbicide, water dispersible granules) and MCPA iso-octyl (emulsifiable concentrate). The ‘carrier’ application volume was using 100 liters per hectare (L/ha) of water. […]

On to `COC(=O)c1ccccc1S(=O)(=O)NC(=O)Nc1nc(C)nc(OC)n1` [Metsulfuron, metsulfuron-methyl], for which, where the note is “Metsulfuron 3 g ai/ha alone”, the “% Control SONOL Ob (percent control observed)” value was 29%.
Turning to `Nc1cc(Cl)nc(C(=O)O)c1Cl` [Aminopyralid, aminopyralid], the “% Control SONOL Ob (percent control observed)” value (Aminopyralid 3.75 g ae/ha alone) is reported as 18%.
